Measurements taken from the NIST ThermoML archive (doi:10.1016/j.jct.2005.04.010).
Numbers after ± are expanded uncertainties.

Experiment: activity coefficient (dimensionless); of the first substance listed, at infinite dilution; xn = mol fraction of the nth substance listed
Details: Liquid, x1 = 0

| Compound | activity coefficient (303.15 K, Chromatography) | activity coefficient (313.15 K, Chromatography) | activity coefficient (323.15 K, Chromatography) | activity coefficient (333.15 K, Chromatography) | activity coefficient (303.15 K, dilutor) | activity coefficient (313.15 K, dilutor) | activity coefficient (323.15 K, dilutor) | activity coefficient (333.15 K, dilutor) |
| --- | --- | --- | --- | --- | --- | --- | --- | --- |
| Cc1ccc(C)cc1 [1,4-dimethylbenzene] + CCCCCCCCn1cc[n+](C)c1.O=S(=O)([N-]S(=O)(=O)C(F)(F)F)C(F)(F)F | 1.11 ± 0.03 | 1.13 ± 0.03 | 1.16 ± 0.04 | 1.16 ± 0.04 |  |  |  |  |
| CCCCCCC [heptane] + CCCCCC[n+]1ccn(C)c1.O=S(=O)([N-]S(=O)(=O)C(F)(F)F)C(F)(F)F | 11.2 ± 0.5 | 10.6 ± 0.5 | 10 ± 0.5 | 9.67 ± 0.44 | 11 ± 0.6 | 10.6 ± 0.5 | 10.1 ± 0.5 | 9.77 ± 0.49 |
| C=CCCCCCC [oct-1-ene] + CCCCCCCCn1cc[n+](C)c1.O=S(=O)([N-]S(=O)(=O)C(F)(F)F)C(F)(F)F | 5.57 ± 0.25 | 5.48 ± 0.25 | 5.32 ± 0.24 | 5.28 ± 0.24 |  |  |  |  |
| CC(C)=O [acetone] + CCCCCC[n+]1ccn(C)c1.O=S(=O)([N-]S(=O)(=O)C(F)(F)F)C(F)(F)F |  |  |  |  | 0.31 ± 0.02 | 0.32 ± 0.02 | 0.34 ± 0.02 | 0.34 ± 0.02 |
| CCOC(C)(C)C [2-ethoxy-2-methylpropane] + CCCCCC[n+]1ccn(C)c1.O=S(=O)([N-]S(=O)(=O)C(F)(F)F)C(F)(F)F | 2.69 ± 0.12 | 2.74 ± 0.12 | 2.76 ± 0.13 | 2.82 ± 0.13 |  |  |  |  |
| CCCCCCC [heptane] + CCCCCCCCn1cc[n+](C)c1.O=S(=O)([N-]S(=O)(=O)C(F)(F)F)C(F)(F)F | 6.82 ± 0.31 | 6.55 ± 0.3 | 6.38 ± 0.29 | 6.21 ± 0.28 | 7.01 ± 0.35 | 6.81 ± 0.34 | 6.57 ± 0.33 | 6.4 ± 0.32 |
| C=CCCCCC [1-heptene] + CCCCCC[n+]1ccn(C)c1.O=S(=O)([N-]S(=O)(=O)C(F)(F)F)C(F)(F)F | 6.46 ± 0.3 | 6.28 ± 0.29 | 6.09 ± 0.28 | 5.96 ± 0.27 | 6.28 ± 0.31 | 6.12 ± 0.31 | 5.96 ± 0.3 | 5.86 ± 0.29 |
| Cc1cccc(C)c1 [1,3-dimethylbenzene] + CCCCCCCCn1cc[n+](C)c1.O=S(=O)([N-]S(=O)(=O)C(F)(F)F)C(F)(F)F | 1.13 ± 0.03 | 1.15 ± 0.04 | 1.17 ± 0.04 | 1.19 ± 0.04 |  |  |  |  |
| C=CCCCC [hex-1-ene] + CCCCCC[n+]1ccn(C)c1.O=S(=O)([N-]S(=O)(=O)C(F)(F)F)C(F)(F)F | 4.71 ± 0.21 | 4.61 ± 0.21 | 4.48 ± 0.2 | 4.44 ± 0.2 | 4.64 ± 0.23 | 4.56 ± 0.23 | 4.48 ± 0.22 | 4.39 ± 0.22 |
| C=CCCCCC [1-heptene] + CCCC[N+]1(C)CCCC1.O=S(=O)([N-]S(=O)(=O)C(F)(F)F)C(F)(F)F |  |  |  |  | 10.4 ± 0.5 | 9.97 ± 0.5 | 9.69 ± 0.48 | 9.37 ± 0.47 |
| CCCC(C)=O [pentan-2-one] + CCCCCC[n+]1ccn(C)c1.O=S(=O)([N-]S(=O)(=O)C(F)(F)F)C(F)(F)F | 0.51 ± 0.03 | 0.52 ± 0.03 | 0.54 ± 0.03 | 0.55 ± 0.03 |  |  |  |  |
| Cc1cccc(C)c1 [1,3-dimethylbenzene] + CCCCCC[n+]1ccn(C)c1.O=S(=O)([N-]S(=O)(=O)C(F)(F)F)C(F)(F)F | 1.4 ± 0.05 | 1.41 ± 0.05 | 1.46 ± 0.06 | 1.5 ± 0.06 |  |  |  |  |
| CCCCCCC [heptane] + CCCC[N+]1(C)CCCC1.O=S(=O)([N-]S(=O)(=O)C(F)(F)F)C(F)(F)F |  |  |  |  | 20.7 ± 1 | 19.3 ± 1 | 18.2 ± 0.9 | 17.2 ± 0.9 |
| CCCO [propan-1-ol] + CCCCCC[n+]1ccn(C)c1.O=S(=O)([N-]S(=O)(=O)C(F)(F)F)C(F)(F)F | 1.9 ± 0.08 | 1.71 ± 0.07 | 1.57 ± 0.06 | 1.45 ± 0.05 |  |  |  |  |
| CCCC(C)=O [pentan-2-one] + CCCC[N+]1(C)CCCC1.O=S(=O)([N-]S(=O)(=O)C(F)(F)F)C(F)(F)F |  |  |  |  | 0.63 ± 0.03 | 0.66 ± 0.03 | 0.68 ± 0.03 | 0.71 ± 0.04 |
| CCCCC [pentane] + CCCCCCCCn1cc[n+](C)c1.O=S(=O)([N-]S(=O)(=O)C(F)(F)F)C(F)(F)F | 4.07 ± 0.19 | 3.94 ± 0.18 | 3.78 ± 0.17 | 3.6 ± 0.16 | 3.98 ± 0.2 | 3.92 ± 0.2 | 3.87 ± 0.19 | 3.84 ± 0.19 |
| CCCO [propan-1-ol] + CCCCCCCCn1cc[n+](C)c1.O=S(=O)([N-]S(=O)(=O)C(F)(F)F)C(F)(F)F | 1.67 ± 0.07 | 1.51 ± 0.06 | 1.35 ± 0.05 | 1.24 ± 0.04 |  |  |  |  |

| Compound | activity coefficient (303.15 K, Chromatography) | activity coefficient (313.15 K, Chromatography) | activity coefficient (323.15 K, Chromatography) | activity coefficient (333.15 K, Chromatography) | activity coefficient (303.15 K, dilutor) | activity coefficient (313.15 K, dilutor) | activity coefficient (323.15 K, dilutor) | activity coefficient (333.15 K, dilutor) |
| --- | --- | --- | --- | --- | --- | --- | --- | --- |
| CCCCCC [hexane] + CCCCCC[n+]1ccn(C)c1.O=S(=O)([N-]S(=O)(=O)C(F)(F)F)C(F)(F)F | 8.23 ± 0.38 | 7.82 ± 0.36 | 7.48 ± 0.34 | 7.27 ± 0.33 | 7.82 ± 0.39 | 7.55 ± 0.38 | 6.96 ± 0.35 | 6.55 ± 0.33 |
| C=CCCCC [hex-1-ene] + CCCC[N+]1(C)CCCC1.O=S(=O)([N-]S(=O)(=O)C(F)(F)F)C(F)(F)F |  |  |  |  | 7.08 ± 0.35 | 6.92 ± 0.35 | 6.82 ± 0.34 | 6.64 ± 0.33 |
| CCC(C)(C)OC [2-methoxy-2-methylbutane] + CCCCCC[n+]1ccn(C)c1.O=S(=O)([N-]S(=O)(=O)C(F)(F)F)C(F)(F)F | 1.83 ± 0.08 | 1.9 ± 0.08 | 1.94 ± 0.09 | 2.02 ± 0.09 |  |  |  |  |
| CO [methanol] + CCCCCC[n+]1ccn(C)c1.O=S(=O)([N-]S(=O)(=O)C(F)(F)F)C(F)(F)F | 1.3 ± 0.04 | 1.19 ± 0.04 | 1.1 ± 0.03 | 1.02 ± 0.03 |  | 1.16 ± 0.06 | 1.14 ± 0.06 | 1.05 ± 0.05 |
| CCCCCC [hexane] + CCCCCCCCn1cc[n+](C)c1.O=S(=O)([N-]S(=O)(=O)C(F)(F)F)C(F)(F)F | 5.32 ± 0.24 | 5.13 ± 0.23 | 4.92 ± 0.22 | 4.8 ± 0.22 | 5.44 ± 0.27 | 5.26 ± 0.26 | 5.13 ± 0.26 | 4.97 ± 0.25 |
| Cc1ccc(C)cc1 [1,4-dimethylbenzene] + CCCCCC[n+]1ccn(C)c1.O=S(=O)([N-]S(=O)(=O)C(F)(F)F)C(F)(F)F | 1.42 ± 0.05 | 1.42 ± 0.05 | 1.48 ± 0.06 | 1.51 ± 0.06 |  |  |  |  |
| CCO [ethanol] + CCCCCCCCn1cc[n+](C)c1.O=S(=O)([N-]S(=O)(=O)C(F)(F)F)C(F)(F)F | 1.46 ± 0.06 | 1.34 ± 0.05 | 1.22 ± 0.04 | 1.12 ± 0.03 |  |  |  |  |
| C1=CCCCC1 [cyclohexene] + CCCCCC[n+]1ccn(C)c1.O=S(=O)([N-]S(=O)(=O)C(F)(F)F)C(F)(F)F | 3.42 ± 0.16 | 3.28 ± 0.15 | 3.18 ± 0.14 | 3.14 ± 0.14 | 3.2 ± 0.16 | 3.15 ± 0.16 | 3.07 ± 0.15 | 3.01 ± 0.15 |
| C=CCCC [1-pentene] + CCCCCC[n+]1ccn(C)c1.O=S(=O)([N-]S(=O)(=O)C(F)(F)F)C(F)(F)F | 3.47 ± 0.16 | 3.4 ± 0.15 | 3.3 ± 0.15 | 3.31 ± 0.15 | 3.36 ± 0.17 | 3.33 ± 0.17 | 3.3 ± 0.17 | 3.23 ± 0.16 |
| C1CCCCC1 [cyclohexane] + CCCCCC[n+]1ccn(C)c1.O=S(=O)([N-]S(=O)(=O)C(F)(F)F)C(F)(F)F | 5.48 ± 0.25 | 5.15 ± 0.24 | 4.9 ± 0.22 | 4.75 ± 0.22 | 5.29 ± 0.26 | 5.01 ± 0.25 | 4.78 ± 0.24 | 4.68 ± 0.23 |
| CCCCCCCC [octane] + CCCCCCCCn1cc[n+](C)c1.O=S(=O)([N-]S(=O)(=O)C(F)(F)F)C(F)(F)F | 8.92 ± 0.41 | 8.43 ± 0.39 | 8.14 ± 0.37 | 7.82 ± 0.36 |  |  |  |  |
| c1ccccc1 [benzene] + CCCCCC[n+]1ccn(C)c1.O=S(=O)([N-]S(=O)(=O)C(F)(F)F)C(F)(F)F | 0.75 ± 0.03 | 0.76 ± 0.03 | 0.78 ± 0.03 | 0.79 ± 0.03 |  |  |  |  |
| CCCCCCCC [octane] + CCCC[N+]1(C)CCCC1.O=S(=O)([N-]S(=O)(=O)C(F)(F)F)C(F)(F)F |  |  |  |  | 28.3 ± 1.4 | 26.5 ± 1.3 | 25.2 ± 1.3 | 23.7 ± 1.2 |
| c1ccccc1 [benzene] + CCCC[N+]1(C)CCCC1.O=S(=O)([N-]S(=O)(=O)C(F)(F)F)C(F)(F)F |  |  |  |  | 0.84 ± 0.04 | 0.86 ± 0.04 | 0.88 ± 0.04 | 0.89 ± 0.04 |
| C1CCCCC1 [cyclohexane] + CCCCCCCCn1cc[n+](C)c1.O=S(=O)([N-]S(=O)(=O)C(F)(F)F)C(F)(F)F | 3.64 ± 0.17 | 3.52 ± 0.16 | 3.36 ± 0.15 | 3.29 ± 0.15 | 3.67 ± 0.18 | 3.59 ± 0.18 | 3.48 ± 0.17 | 3.39 ± 0.17 |
| C1=CCCC1 [cyclopentene] + CCCCCCCCn1cc[n+](C)c1.O=S(=O)([N-]S(=O)(=O)C(F)(F)F)C(F)(F)F |  |  |  |  | 1.86 ± 0.09 | 1.84 ± 0.09 | 1.81 ± 0.09 | 1.78 ± 0.09 |
| CC(C)OC(C)C [diisopropyl ether] + CCCCCC[n+]1ccn(C)c1.O=S(=O)([N-]S(=O)(=O)C(F)(F)F)C(F)(F)F | 2.76 ± 0.13 | 2.82 ± 0.13 | 2.85 ± 0.13 | 2.92 ± 0.13 |  |  |  |  |
